From ChEMBL document CHEMBL3085706, “Scorpiand-like azamacrocycles prevent the chronic establishment of Trypanosoma cruzi in a murine model” (Eur J Med Chem, 2013)
Active and inactive are the calls of the source. The calls are words filed in the database; no cut-off is given here.

Experiments:
Trypanosoma cruzi [1] = experiment: Trypanocidal activity against extracellular trypomastigote form of Trypanosoma cruzi IRHOD/CO/2008/SN3 after 24 hrs by Neubauer hemocytometric analysis; assay type: functional, organism-based; settings: IRHOD/CO/2008/SN3, 24 h
Trypanosoma cruzi [2] = experiment: Trypanocidal activity against intracellular amastigote form of Trypanosoma cruzi IRHOD/CO/2008/SN3 infected in African green monkey Vero cells after 72 hrs by Giemsa staining assay; assay type: functional, organism-based; settings: IRHOD/CO/2008/SN3, Vero
Trypanosoma cruzi [3] = experiment: Trypanocidal activity against extracellular epimastigote form of Trypanosoma cruzi IRHOD/CO/2008/SN3 after 72 hrs by Neubauer hemocytometric analysis; assay type: functional, organism-based; settings: IRHOD/CO/2008/SN3, 72 h
Trypanosoma cruzi [4] = experiment: Trypanocidal activity against epimastigote form of Trypanosoma cruzi IRHOD/CO/2008/SN3 assessed as induction of ethanol production at IC25 after 96 hrs by NMR spectra analysis; assay type: functional, organism-based
Trypanosoma cruzi [5] = experiment: Trypanocidal activity against epimastigote form of Trypanosoma cruzi IRHOD/CO/2008/SN3 assessed as inhibition of acetate excretion at IC25 after 96 hrs by NMR spectra analysis; assay type: functional, organism-based
Trypanosoma cruzi [6] = experiment: Trypanocidal activity against epimastigote form of Trypanosoma cruzi IRHOD/CO/2008/SN3 assessed as inhibition of succinate excretion at IC25 after 96 hrs by NMR spectra analysis; assay type: functional, organism-based
[7] = Inhibition of Escherichia coli Mn-SOD assessed as reduction of nitrobluetetrazolium measured for 10 mins by spectrophotometric analysis
[8] = Inhibition of Fe-SOD in Trypanosoma cruzi IRHOD/CO/2008/SN3 epimastigotes assessed as reduction of nitrobluetetrazolium measured for 10 mins by spectrophotometric analysis
Trypanosoma cruzi [9] = experiment: Inhibition of Fe-SOD in Trypanosoma cruzi IRHOD/CO/2008/SN3 epimastigotes assessed as reduction of nitrobluetetrazolium at 12.5 to 25 uM measured for 10 mins by spectrophotometric analysis relative to control
Trypanosoma cruzi [10] = experiment: Trypanocidal activity against epimastigote form of Trypanosoma cruzi IRHOD/CO/2008/SN3 assessed as loss of plasma membrane integrity at IC25 after 96 hrs by transmission electron microscopic analysis; assay type: functional, organism-based
Trypanosoma cruzi [11] = experiment: Trypanocidal activity against epimastigote form of Trypanosoma cruzi IRHOD/CO/2008/SN3 assessed as excessive dilation of kinetoplast at IC25 after 96 hrs by transmission electron microscopic analysis; assay type: functional, organism-based
Trypanosoma cruzi [12] = experiment: Trypanocidal activity against epimastigote form of Trypanosoma cruzi IRHOD/CO/2008/SN3 assessed as cytoplasmic vacuolization and disintegration at IC25 after 96 hrs by transmission electron microscopic analysis; assay type: functional, organism-based
Trypanosoma cruzi [13] = experiment: Trypanocidal activity against epimastigote form of Trypanosoma cruzi IRHOD/CO/2008/SN3 assessed as lysis of epimastigotes at IC25 after 96 hrs by transmission electron microscopic analysis; assay type: functional, organism-based
Trypanosoma cruzi [14] = experiment: Trypanocidal activity against bloodstream trypomastigote form of Trypanosoma cruzi IRHOD/CO/2008/SN3 infected in BALB/c mouse assessed as reduction of anti-parasitic Ig-G level in serum at 5 mg/kg/day, ip administered for 5 days measured over 40 to 120 days post-infection by ELISA; assay type: functional, organism-based
Trypanosoma cruzi [15] = experiment: Trypanocidal activity against bloodstream trypomastigote form of Trypanosoma cruzi IRHOD/CO/2008/SN3 infected in BALB/c mouse assessed as reduction of circulating parasite burden at 5 mg/kg, ip administered for 5 to 10 days measured 22 to 60 days post-infection by Neubauer hemocytometric analysis; assay type: functional, organism-based; design: dose 5 mg/kg
Trypanosoma cruzi [16] = experiment: Trypanocidal activity against trypomastigote form of Trypanosoma cruzi IRHOD/CO/2008/SN3 infected in African green monkey Vero cells assessed as inhibition of trypomastigotes released in culture medium at IC25 relative to control; assay type: functional
Trypanosoma cruzi [17] = experiment: (§1) Trypanocidal activity against amastigote form of Trypanosoma cruzi IRHOD/CO/2008/SN3 infected in African green monkey Vero cells assessed as inhibition of amastigotes load per cell at IC25 preincubated for 12 hrs followed by compound washout measured after 10 days by Giemsa staining-based microscopic analysis relative to control; assay type: functional
Trypanosoma cruzi [18] = experiment: as §1, with “parasite infection rate” for “amastigotes load per cell”; assay type: functional
[19] = Selectivity index, ratio of IC50 for African green monkey Vero cells to IC50 for extracellular trypomastigote form of Trypanosoma cruzi IRHOD/CO/2008/SN3; assay type: toxicity, cell-based; settings: read-out: Ratio IC50
[20] = Selectivity index, ratio of IC50 for African green monkey Vero cells to IC50 for intracellular amastigote form of Trypanosoma cruzi IRHOD/CO/2008/SN3; assay type: toxicity, cell-based; settings: read-out: Ratio IC50
[21] = Selectivity index, ratio of IC50 for African green monkey Vero cells to IC50 for extracellular epimastigote form of Trypanosoma cruzi IRHOD/CO/2008/SN3; assay type: toxicity, cell-based; settings: read-out: Ratio IC50
Vero = experiment: Cytotoxicity against African green monkey Vero cells after 72 hrs by flow cytometric analysis; assay type: cell-based; settings: Chlorocebus sabaeus
Trypanosoma cruzi [22] = experiment: Trypanocidal activity against epimastigote form of Trypanosoma cruzi IRHOD/CO/2008/SN3 assessed as inhibition of lactate excretion at IC25 after 96 hrs by NMR spectra analysis; assay type: functional, organism-based
Trypanosoma cruzi [23] = experiment: Trypanocidal activity against epimastigote form of Trypanosoma cruzi IRHOD/CO/2008/SN3 assessed as inhibition of alanine excretion at IC25 after 96 hrs by NMR spectra analysis; assay type: functional, organism-based
Trypanosoma cruzi [24] = experiment: Trypanocidal activity against epimastigote form of Trypanosoma cruzi IRHOD/CO/2008/SN3 assessed as appearance of swollen mitochondria at IC25 after 96 hrs by transmission electron microscopic analysis; assay type: functional, organism-based
Trypanosoma cruzi [25] = experiment: Trypanocidal activity against epimastigote form of Trypanosoma cruzi IRHOD/CO/2008/SN3 assessed as disorganization of cytoplasm at IC25 after 96 hrs by transmission electron microscopic analysis; assay type: functional, organism-based

IC50 [7] [µM]	inhibition (Trypanosoma cruzi [9]) [%]	Compound	IC50 (Trypanosoma cruzi [1]) [µM]	IC50 (Trypanosoma cruzi [2]) [µM]	IC50 (Trypanosoma cruzi [3]) [µM]	Activity (Trypanosoma cruzi [4])	inhibition (Trypanosoma cruzi [5])	inhibition (Trypanosoma cruzi [6])	IC50 [8] [µM]	Activity (Trypanosoma cruzi [14])	Activity (Trypanosoma cruzi [15])	inhibition (INH) (Trypanosoma cruzi [16]) [%]	inhibition (INH) (Trypanosoma cruzi [17]) [%]	inhibition (INH) (Trypanosoma cruzi [18]) [%]	selectivity ratio [19]	selectivity ratio [20]	selectivity ratio [21]	IC50 (Vero) [µM]	inhibition (Trypanosoma cruzi [22])	inhibition (Trypanosoma cruzi [23])	other results
111	100	Br.NCCN1CCNCc2cccc(n2)CNCC1	16.3	7.8	6.5	Active	Active	Active	12.5	Active	Active	58	46	73	16.5	34.5	41.4	270	Active	Active	Activity (Trypanosoma cruzi [10]): Active; Activity (Trypanosoma cruzi [11]): Active; Activity (Trypanosoma cruzi [12]): Active; Activity (Trypanosoma cruzi [13]): Active
		NCCCNCCN1CCNCc2cccc(n2)CNCC1	27.6	20	21										6.1	8.3	8	167			
62.5	100	Cl.c1ccc(CNCCN2CCNCc3cccc(n3)CNCC2)nc1	18	10	9	Active	Active	Active	8.2	Active	Active	82	60	77	20.3	36.4	42.2	366	Active	Active	Activity (Trypanosoma cruzi [24]): Active; Activity (Trypanosoma cruzi [25]): Active
